The values below come from ChEMBL document CHEMBL5723379, “Affinity On-target Cellular Literature for EUbOPEN Chemogenomic Library” (2024).

Assay [1] addresses Triacylglycerol hydrolase DDHD2 (Homo sapiens, UniProt O94830). As to the kind of experiment: Affinity On-target Cellular interaction: (Inhibition of DDHD2 in HEK293T cells measured by competitive activity-based protein profiling) EUB0002612a DDHD2. More on the design: mode of action Inhibitor, recommended concentration 1 uM. The assay is classed as functional, cell-based, HEK-293T.

The target in assay [2] is T1, Sodium-dependent neutral amino acid transporter B(0)AT1 (Homo sapiens, UniProt Q695T7). As to the kind of experiment: Affinity On-target Cellular interaction: (Fluorescence imaging plate reader (FLIPR) membrane potential (FMP) assay, MDCK cells) EUB0002537a SLC6A19. The assay is classed as functional, cell-based. More on the design: mode of action Inhibitor, recommended concentration 1 uM.
T1 sequence (Q695T7 whole entry): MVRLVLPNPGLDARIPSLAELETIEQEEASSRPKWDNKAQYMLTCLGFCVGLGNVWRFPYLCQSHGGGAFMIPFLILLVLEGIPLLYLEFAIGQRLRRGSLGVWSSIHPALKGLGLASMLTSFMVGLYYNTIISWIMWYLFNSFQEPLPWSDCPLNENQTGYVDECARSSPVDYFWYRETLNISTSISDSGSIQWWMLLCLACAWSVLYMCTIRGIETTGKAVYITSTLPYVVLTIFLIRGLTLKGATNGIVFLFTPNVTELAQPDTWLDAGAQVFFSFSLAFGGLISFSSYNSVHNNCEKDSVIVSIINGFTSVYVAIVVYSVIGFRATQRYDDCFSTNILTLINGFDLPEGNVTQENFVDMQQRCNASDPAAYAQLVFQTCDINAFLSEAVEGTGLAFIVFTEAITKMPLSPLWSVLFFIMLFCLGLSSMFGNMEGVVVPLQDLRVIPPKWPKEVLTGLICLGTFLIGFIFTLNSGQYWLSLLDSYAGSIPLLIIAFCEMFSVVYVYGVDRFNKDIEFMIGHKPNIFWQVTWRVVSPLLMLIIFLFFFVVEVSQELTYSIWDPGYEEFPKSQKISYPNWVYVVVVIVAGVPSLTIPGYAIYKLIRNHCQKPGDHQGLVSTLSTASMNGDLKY

Assay [3] addresses T1, Sodium-dependent neutral amino acid transporter B(0)AT1. In words: Affinity On-target Cellular interaction: (Stable isotope uptake assay, MDCK cells) EUB0002537a SLC6A19. More on the design: mode of action Inhibitor, recommended concentration 1 uM. The assay is classed as functional, cell-based.
Assay [4] concerns the target T2, Peroxisome proliferator-activated receptor delta (Homo sapiens, UniProt Q03181).
T2 sequence (Q03181 whole entry): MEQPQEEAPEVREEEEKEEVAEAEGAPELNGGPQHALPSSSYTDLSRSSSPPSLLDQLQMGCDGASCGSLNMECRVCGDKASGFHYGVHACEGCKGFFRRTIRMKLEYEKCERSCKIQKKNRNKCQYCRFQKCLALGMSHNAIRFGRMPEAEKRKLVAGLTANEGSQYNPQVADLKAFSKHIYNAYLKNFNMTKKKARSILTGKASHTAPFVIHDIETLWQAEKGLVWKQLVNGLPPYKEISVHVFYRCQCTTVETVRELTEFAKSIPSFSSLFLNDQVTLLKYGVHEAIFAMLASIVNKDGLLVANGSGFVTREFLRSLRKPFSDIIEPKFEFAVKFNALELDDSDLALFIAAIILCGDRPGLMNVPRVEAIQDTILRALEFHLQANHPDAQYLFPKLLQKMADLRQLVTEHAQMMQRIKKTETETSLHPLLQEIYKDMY
In words: Affinity On-target Cellular interaction: (Reporter gene assay (HEK293T cells)) EUB0001483aCl PPARD. The assay is classed as functional, cell-based, HEK-293T. The arrangement: mode of action Antagonist, recommended concentration 10 uM.

The target in another assay is Histone deacetylase 1 (Homo sapiens, UniProt Q13547). In words: Affinity On-target Cellular interaction: (Inhibition of enzyme activity in 293T cells transfected with vector alone) EUB0002519a HDAC1. In kind it is functional, cell-based, HEK-293T. More on the design: mode of action Inhibitor, recommended concentration 1 uM.
Histone deacetylase 1, sequence (Q13547 whole entry): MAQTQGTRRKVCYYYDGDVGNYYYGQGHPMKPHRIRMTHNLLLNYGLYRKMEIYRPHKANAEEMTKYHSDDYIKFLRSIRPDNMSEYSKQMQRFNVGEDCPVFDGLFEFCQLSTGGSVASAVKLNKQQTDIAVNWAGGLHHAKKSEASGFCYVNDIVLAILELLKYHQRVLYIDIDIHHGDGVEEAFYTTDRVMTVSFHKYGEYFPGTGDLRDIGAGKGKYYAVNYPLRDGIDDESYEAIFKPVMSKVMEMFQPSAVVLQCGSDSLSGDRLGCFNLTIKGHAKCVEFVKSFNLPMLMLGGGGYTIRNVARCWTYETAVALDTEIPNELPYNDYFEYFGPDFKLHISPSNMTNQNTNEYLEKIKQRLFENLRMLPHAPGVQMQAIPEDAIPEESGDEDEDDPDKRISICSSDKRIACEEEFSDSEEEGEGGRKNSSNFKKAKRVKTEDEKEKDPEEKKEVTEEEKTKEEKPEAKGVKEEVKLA
For the next assay, the target named is Histone deacetylase 2 (Homo sapiens, UniProt Q92769). In words: Affinity On-target Cellular interaction: (Inhibition of enzyme activity in 293T cells transfected with vector alone) EUB0002519a HDAC2. The assay is classed as functional, cell-based, HEK-293T. More on the design: mode of action Inhibitor, recommended concentration 1 uM.
Histone deacetylase 2, sequence (Q92769 whole entry): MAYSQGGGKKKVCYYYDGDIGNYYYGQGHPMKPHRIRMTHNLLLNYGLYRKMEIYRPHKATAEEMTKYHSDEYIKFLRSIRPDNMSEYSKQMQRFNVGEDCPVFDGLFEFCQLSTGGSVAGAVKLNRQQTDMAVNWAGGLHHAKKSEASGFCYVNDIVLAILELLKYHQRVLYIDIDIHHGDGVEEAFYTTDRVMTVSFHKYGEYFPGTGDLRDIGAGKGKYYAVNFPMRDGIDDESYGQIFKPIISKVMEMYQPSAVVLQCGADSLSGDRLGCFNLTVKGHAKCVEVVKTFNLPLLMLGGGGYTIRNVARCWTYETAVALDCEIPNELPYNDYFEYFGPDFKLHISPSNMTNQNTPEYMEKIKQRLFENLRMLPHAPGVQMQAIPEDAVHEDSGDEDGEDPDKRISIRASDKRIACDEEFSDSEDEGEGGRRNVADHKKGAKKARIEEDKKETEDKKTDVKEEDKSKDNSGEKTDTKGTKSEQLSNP
The target of assay [5] is Histone-lysine N-methyltransferase EZH1 (Homo sapiens, UniProt Q92800). As to the kind of experiment: Affinity On-target Cellular interaction: (Protein substrate methylation in WSU-DLCL2 cells) EUB0002228a EZH1. The assay is classed as functional, cell-based, WSUDLCL2. The arrangement: mode of action Inhibitor, recommended concentration 1 uM.
Histone-lysine N-methyltransferase EZH1, sequence (Q92800 whole entry): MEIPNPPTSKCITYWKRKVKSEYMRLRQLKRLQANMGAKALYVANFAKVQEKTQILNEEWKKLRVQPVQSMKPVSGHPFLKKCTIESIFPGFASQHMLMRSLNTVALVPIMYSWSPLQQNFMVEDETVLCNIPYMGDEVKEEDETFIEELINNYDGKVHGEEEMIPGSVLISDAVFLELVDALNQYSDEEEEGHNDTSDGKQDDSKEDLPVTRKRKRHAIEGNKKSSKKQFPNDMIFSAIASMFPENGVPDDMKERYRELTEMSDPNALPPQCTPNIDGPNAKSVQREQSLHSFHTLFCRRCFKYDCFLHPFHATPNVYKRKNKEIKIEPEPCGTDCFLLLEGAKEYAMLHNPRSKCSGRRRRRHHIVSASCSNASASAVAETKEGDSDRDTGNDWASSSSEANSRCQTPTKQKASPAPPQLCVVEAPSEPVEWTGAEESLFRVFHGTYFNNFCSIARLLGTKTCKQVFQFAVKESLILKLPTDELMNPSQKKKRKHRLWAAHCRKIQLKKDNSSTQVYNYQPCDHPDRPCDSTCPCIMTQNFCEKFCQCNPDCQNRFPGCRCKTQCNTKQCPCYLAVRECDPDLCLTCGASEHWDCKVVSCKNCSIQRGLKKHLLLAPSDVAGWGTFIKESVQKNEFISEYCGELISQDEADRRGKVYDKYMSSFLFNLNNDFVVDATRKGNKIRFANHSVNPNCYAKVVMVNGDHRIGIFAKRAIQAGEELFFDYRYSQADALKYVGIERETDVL
For assay [6], the target named is T3, Nuclear receptor ROR-gamma (Homo sapiens, UniProt P51449).
T3 sequence (P51449 whole entry): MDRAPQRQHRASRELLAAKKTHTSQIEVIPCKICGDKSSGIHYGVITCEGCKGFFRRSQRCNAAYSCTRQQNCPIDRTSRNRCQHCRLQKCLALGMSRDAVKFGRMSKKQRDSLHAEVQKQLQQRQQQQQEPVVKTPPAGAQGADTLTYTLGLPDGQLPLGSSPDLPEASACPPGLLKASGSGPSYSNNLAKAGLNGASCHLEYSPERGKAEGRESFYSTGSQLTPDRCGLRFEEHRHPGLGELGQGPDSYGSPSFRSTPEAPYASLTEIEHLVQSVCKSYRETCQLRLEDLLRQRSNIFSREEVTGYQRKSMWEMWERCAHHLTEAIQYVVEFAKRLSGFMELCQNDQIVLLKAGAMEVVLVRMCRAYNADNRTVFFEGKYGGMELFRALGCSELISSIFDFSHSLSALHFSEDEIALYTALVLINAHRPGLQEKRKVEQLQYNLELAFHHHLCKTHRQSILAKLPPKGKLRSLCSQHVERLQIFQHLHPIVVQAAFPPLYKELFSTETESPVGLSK
In words: Affinity On-target Cellular interaction: (Reporter gene assay (HEK293T cells)) EUB0001157a RORC. In kind it is functional, cell-based, HEK-293T. More on the design: mode of action Inverse Agonist, recommended concentration 10 uM. (In general: A reporter such as luciferase makes a cellular process visible.)

For assay [7], the target named is T4, Nuclear receptor ROR-beta (Homo sapiens, UniProt Q92753).
T4 sequence (Q92753 whole entry): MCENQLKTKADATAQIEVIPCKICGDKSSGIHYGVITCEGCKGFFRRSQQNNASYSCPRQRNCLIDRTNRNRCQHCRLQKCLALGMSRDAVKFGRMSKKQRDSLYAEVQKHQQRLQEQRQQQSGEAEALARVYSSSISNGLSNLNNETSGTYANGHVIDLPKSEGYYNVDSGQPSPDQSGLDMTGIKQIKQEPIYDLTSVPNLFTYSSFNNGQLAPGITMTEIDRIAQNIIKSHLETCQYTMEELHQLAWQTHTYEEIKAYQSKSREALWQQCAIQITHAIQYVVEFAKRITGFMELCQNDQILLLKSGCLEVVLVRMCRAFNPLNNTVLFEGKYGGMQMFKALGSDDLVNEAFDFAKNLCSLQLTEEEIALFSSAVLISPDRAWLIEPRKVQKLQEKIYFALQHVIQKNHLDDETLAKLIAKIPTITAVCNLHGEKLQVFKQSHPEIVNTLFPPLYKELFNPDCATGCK
As to the kind of experiment: Affinity On-target Cellular interaction: (Reporter gene assay (HEK293T cells)) EUB0001157a RORB. More on the design: mode of action Inverse Agonist, recommended concentration 10 uM. The assay is classed as functional, cell-based, HEK-293T.

For assay [8], the target named is T5, Nuclear receptor ROR-alpha (Homo sapiens, UniProt P35398). As to the kind of experiment: Affinity On-target Cellular interaction: (Reporter gene assay (HEK293T cells)) EUB0001157a RORA. More on the design: mode of action Inverse Agonist, recommended concentration 10 uM. In kind it is functional, cell-based, HEK-293T.
T5 sequence (P35398 whole entry): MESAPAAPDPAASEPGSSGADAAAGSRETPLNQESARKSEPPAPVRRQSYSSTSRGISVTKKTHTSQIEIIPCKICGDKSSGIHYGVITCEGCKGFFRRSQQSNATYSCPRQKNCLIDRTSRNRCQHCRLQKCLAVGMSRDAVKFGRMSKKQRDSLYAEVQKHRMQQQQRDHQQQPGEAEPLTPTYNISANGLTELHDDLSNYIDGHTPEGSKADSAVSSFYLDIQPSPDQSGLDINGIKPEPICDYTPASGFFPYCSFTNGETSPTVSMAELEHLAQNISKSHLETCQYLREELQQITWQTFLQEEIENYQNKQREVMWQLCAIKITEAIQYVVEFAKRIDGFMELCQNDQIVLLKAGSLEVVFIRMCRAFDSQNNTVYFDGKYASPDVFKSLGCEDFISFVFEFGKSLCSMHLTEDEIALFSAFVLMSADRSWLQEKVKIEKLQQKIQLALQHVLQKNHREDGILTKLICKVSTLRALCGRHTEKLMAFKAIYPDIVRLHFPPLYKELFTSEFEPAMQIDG
Assay [9] addresses T5, Nuclear receptor ROR-alpha. As to the kind of experiment: Affinity On-target Cellular interaction: (Reporter gene assay (HEK293T cells)) EUB0001158a RORA. The arrangement: mode of action Inverse Agonist, recommended concentration 1 uM. In kind it is functional, cell-based, HEK-293T.
The target in assay [10] is T3, Nuclear receptor ROR-gamma.
Assay [11] deals with T4, Nuclear receptor ROR-beta. As to the kind of experiment: Affinity On-target Cellular interaction: (Reporter gene assay (HEK293T cells)) EUB0001158a RORB. In kind it is functional, cell-based, HEK-293T. The arrangement: mode of action Inverse Agonist, recommended concentration 1 uM.
Assay [12] addresses T3, Nuclear receptor ROR-gamma. The source holds these as a separate data set.
The target in the next assay is Adenosine kinase (Homo sapiens, UniProt P55263). In words: Affinity On-target Cellular interaction: (Intact cell adenosine phosphorylation assay (radiochemical), IMR-32 human neuroblastoma cells) EUB0002485aCl ADK. The arrangement: mode of action Inhibitor, recommended concentration 1 uM. In kind it is functional, cell-based.
Adenosine kinase, sequence (P55263 whole entry): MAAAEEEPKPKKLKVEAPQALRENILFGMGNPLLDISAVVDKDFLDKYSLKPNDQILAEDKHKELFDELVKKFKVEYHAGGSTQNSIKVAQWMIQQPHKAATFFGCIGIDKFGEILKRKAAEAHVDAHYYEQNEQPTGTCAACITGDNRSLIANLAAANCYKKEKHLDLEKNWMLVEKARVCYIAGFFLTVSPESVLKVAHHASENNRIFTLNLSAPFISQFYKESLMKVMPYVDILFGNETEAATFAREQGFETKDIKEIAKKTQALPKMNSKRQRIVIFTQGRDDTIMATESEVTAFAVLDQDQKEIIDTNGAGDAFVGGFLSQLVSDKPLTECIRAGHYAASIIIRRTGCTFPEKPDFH
In assay [13] the target is T4, Nuclear receptor ROR-beta. In words: Affinity On-target Cellular interaction: (Reporter gene assay (HEK293T cells)) EUB0001161a RORB. In kind it is functional, cell-based, HEK-293T. More on the design: mode of action Antagonist, recommended concentration 10 uM.
The target in assay [14] is Sodium/glucose cotransporter 2 (Homo sapiens, UniProt P31639). As to the kind of experiment: Affinity On-target Cellular interaction: (AMG uptake assay in presence of 25% human plasma, 293.ETN cells) EUB0002515a SLC5A2. In kind it is functional, HEK293. More on the design: mode of action Inhibitor, recommended concentration 1 uM.
Sodium/glucose cotransporter 2, sequence (P31639 whole entry): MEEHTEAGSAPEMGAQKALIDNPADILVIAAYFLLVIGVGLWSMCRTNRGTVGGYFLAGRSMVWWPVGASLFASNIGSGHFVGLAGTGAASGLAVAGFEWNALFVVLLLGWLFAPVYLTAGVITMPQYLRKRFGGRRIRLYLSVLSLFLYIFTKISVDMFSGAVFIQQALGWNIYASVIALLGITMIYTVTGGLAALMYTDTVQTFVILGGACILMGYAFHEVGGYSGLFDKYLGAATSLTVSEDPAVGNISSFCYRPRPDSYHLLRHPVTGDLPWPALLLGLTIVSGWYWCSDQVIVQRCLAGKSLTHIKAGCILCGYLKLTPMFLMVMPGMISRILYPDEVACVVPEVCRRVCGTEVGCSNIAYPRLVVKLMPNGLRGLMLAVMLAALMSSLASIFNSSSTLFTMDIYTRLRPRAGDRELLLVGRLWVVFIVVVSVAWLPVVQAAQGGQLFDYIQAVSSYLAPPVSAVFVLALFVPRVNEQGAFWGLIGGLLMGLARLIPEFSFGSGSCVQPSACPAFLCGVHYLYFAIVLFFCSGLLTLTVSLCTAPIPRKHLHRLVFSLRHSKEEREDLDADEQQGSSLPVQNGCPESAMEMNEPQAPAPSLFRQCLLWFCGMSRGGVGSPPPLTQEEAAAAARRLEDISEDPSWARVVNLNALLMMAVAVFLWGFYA

The structures appear in SMILES notation.

Triacylglycerol hydrolase DDHD2, sequence (O94830 whole entry): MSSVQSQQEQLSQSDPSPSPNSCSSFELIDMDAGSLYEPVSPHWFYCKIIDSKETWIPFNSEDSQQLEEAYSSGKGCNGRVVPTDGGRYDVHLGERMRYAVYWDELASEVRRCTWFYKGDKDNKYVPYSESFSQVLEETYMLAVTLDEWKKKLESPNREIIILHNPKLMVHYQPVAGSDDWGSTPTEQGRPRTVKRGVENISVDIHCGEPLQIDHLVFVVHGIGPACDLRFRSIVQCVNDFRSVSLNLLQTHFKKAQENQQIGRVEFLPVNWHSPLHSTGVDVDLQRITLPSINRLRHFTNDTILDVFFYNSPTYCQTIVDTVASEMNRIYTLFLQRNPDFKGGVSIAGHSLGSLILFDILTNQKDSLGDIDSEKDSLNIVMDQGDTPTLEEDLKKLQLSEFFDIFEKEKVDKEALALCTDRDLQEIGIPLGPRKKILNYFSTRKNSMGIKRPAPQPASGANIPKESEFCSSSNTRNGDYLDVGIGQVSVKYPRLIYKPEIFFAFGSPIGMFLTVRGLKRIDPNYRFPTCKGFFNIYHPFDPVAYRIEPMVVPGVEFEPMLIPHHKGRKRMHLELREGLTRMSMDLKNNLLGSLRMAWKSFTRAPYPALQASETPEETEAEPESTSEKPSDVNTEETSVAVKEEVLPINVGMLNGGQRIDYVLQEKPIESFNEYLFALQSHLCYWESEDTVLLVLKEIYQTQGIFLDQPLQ

One may read the IC50 as the midpoint of a concentration-inhibition curve. As for `O=C(N(CCc1ccccc1)C1CCCCC1)n1ncc(-c2ccc(OC(F)(F)F)cc2)n1`, the IC50 in [1] worked out at 0.0036 µM.

In the case of `CCNC(=O)/C=C/c1cccc(Br)c1` [CINROMIDE], the IC50 in assay [2] amounted to 0.28 µM; in assay [3] it was 0.37 µM.

In [4], `CN1CCN(c2ccc(/C=C(\C#N)c3ccccc3Br)cc2)CC1` had an IC50 of 1.8 µM.

In the case of `Nc1ccc(-c2cccs2)cc1NC(=O)c1ccc(NC=O)cc1`, the IC50 at Histone deacetylase 1 and against Histone deacetylase 2 was 0.3 µM in each case.

`CCN(c1cc(C#CCN2CCOCC2)cc(C(=O)NCc2c(C)cc(C)[nH]c2=O)c1C)[C@H]1CC[C@H](N(C)CCOC)CC1`: the IC50 in [5] is < 0.1 µM.

As for `O=S(=O)(Nc1ccc(C(O)(C(F)(F)F)C(F)(F)F)cc1)c1cccs1`, the IC50 amounted to 3.2 µM in [6], 1.5 µM in [7] and 0.5 µM in [8].

Consider `CC(=O)Nc1nc(C)c(S(=O)(=O)Nc2ccc(C(O)(C(F)(F)F)C(F)(F)F)cc2)s1`, for which the values for the IC50 in [9], in assay [10] and in [11] were 0.9 µM, 0.11 µM and 1.1 µM, respectively.

By EC50 is commonly meant the midpoint of the concentration-response curve. A high value points to a less potent agent. As to `O=C(Nc1ccc(C(O)(C(F)(F)F)C(F)(F)F)cc1)c1ccc(C(F)(F)F)cc1`, a half-maximal response in [12] (EC50) required 2 µM.

Consider `Nc1ncnc2nc(-c3ccc(N4CCOCC4)nc3)cc(-c3cccc(Br)c3)c12`, for which the IC50 at Adenosine kinase turned out to be 0.051 µM.

On to `COc1cc(O)c(C(CC(=O)N2C[C@H](C)C[C@H](C)C2)c2ccc3c(c2)OCO3)c(OC)c1` (some centres not stated), for which half-maximal inhibition in assay [13] (IC50) was put at 1.3 µM.

As for `OC[C@H]1O[C@@H](c2ccc(Cl)c(Cc3ccc(OCCOC4CC4)cc3)c2)[C@H](O)[C@@H](O)[C@@H]1O` [BEXAGLIFLOZIN], in assay [14], the IC50 was determined as 0.002 µM.
